Experimental findings from ChEMBL document CHEMBL4680201, “Design, synthesis, and pharmacological evaluation of 4- or 6-phenyl-pyrimidine derivatives as novel and selective Janus kinase 3 inhibitors” (Eur J Med Chem, 2020) are described below.

SMILES strings stand for the structures. Activity calls are given as the source filed them. The rule behind the calls is not given here.

The AUC is the area under the concentration-time curve, a measure of exposure. As usually defined, the MRT inf is a mean duration of stay, worked out from the concentration-time curve.

Series [1] deals with Mus musculus. Put plainly: Immunosuppressive activity in Balb/c mouse model of oxazolone-induced delayed type hypersensitivity assessed as reduction in ear swelling at 30 mg/kg, po measured after 7 days. The series is classed as functional, organism-based. Conditions: time 7.0 day.
A short description of series [2]: Apparent volume of distribution in ICR mouse at 30 mg/kg, po administered as single dose via gavage by LC-MS/MS analysis. It is filed as ADME, organism-based. Conditions: in vivo.
A short description of series [3]: Terminal half life in ICR mouse at 30 mg/kg, po administered as single dose via gavage by LC-MS/MS analysis. It is filed as ADME, organism-based. The following applies: in vivo, read-out: beta t1/2 (converted).
In series [4] the target is T1, Tyrosine-protein kinase JAK3 (Mus musculus) (UniProt Q62137).
T1 sequence (whole entry): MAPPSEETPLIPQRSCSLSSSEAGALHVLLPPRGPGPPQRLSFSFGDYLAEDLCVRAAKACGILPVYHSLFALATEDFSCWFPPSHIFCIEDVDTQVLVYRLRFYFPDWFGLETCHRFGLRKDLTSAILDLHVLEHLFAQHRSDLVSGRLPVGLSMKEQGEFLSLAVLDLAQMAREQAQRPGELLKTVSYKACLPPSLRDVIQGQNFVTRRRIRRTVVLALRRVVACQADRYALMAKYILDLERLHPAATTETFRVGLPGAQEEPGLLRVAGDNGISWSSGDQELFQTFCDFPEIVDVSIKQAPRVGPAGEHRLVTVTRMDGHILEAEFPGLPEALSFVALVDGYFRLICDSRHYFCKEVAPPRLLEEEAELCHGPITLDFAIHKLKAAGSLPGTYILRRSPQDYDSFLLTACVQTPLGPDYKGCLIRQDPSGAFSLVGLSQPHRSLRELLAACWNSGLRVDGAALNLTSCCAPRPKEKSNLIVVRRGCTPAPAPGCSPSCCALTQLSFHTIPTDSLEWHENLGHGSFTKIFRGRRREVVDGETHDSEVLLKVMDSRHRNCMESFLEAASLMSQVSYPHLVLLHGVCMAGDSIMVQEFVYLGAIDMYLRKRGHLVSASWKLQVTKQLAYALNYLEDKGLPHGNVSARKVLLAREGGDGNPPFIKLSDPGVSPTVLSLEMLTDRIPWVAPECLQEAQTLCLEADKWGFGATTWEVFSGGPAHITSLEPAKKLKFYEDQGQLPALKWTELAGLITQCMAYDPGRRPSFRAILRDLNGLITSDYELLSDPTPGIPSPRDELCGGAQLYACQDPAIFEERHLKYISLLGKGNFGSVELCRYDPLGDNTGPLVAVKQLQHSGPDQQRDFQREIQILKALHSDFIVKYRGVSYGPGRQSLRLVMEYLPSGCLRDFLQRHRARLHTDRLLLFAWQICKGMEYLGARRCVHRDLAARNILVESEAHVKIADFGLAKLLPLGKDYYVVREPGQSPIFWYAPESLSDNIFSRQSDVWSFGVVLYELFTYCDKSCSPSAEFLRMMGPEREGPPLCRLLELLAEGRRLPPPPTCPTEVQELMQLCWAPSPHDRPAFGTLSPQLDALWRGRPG
Put plainly: Inhibition of JAK3 in anti-CD3/-CD28 coated mouse T cells assessed as reduction in IL15-induced STAT5 phosphorylation at 10 uM preincubated for 1 hr followed by […] and measured after 30 mins by Western blot analysis. The following applies: T cell. (A western blot detects proteins with antibodies after separation by electrophoresis.)

The target of series [5] is T1, Tyrosine-protein kinase JAK3 (Mus musculus). The series can be described thus: Inhibition of JAK3 in anti-CD3/-CD28 coated mouse T cells assessed as reduction in IL2-induced STAT5 phosphorylation preincubated for 1 hr followed by IL2 stimulation and measured after 30 mins by Western blot analysis. Conditions: T cell.
A short description of series [6]: AUC (0 to infinity) in ICR mouse at 30 mg/kg, po administered as single dose via gavage by LC-MS/MS analysis. The series is classed as ADME, organism-based. Further details: time infinity, route oral, dose 30 mg/kg. Conditions: in vivo.
A short description of series [7]: MRT (0 to infinity) in ICR mouse at 30 mg/kg, po administered as single dose via gavage by LC-MS/MS analysis. The following applies: in vivo. It is filed as ADME, organism-based.

With `C=CC(=O)Nc1ccc(-c2ccnc(Nc3ccc(N4CCOCC4)cc3)n2)cc1`, in series [1], the outcome was Active. For the same compound, the Vz in series [2] was 220.42 L/kg. Moreover, the half-life in series [3] is 1.52 h. Further, the inhibition entry in series [4] was “Active”. Further, in series [5], the inhibition result is “Dose-dependent effect”. The compound also showed an AUC in series [6] of 897.12 ng·h/mL. Also, the MRT inf in series [7] was found to be 1.42 h.
